Data reported in patent US11738072B2, “Tumor vaccine and uses thereof” (WestVac Biopharma Co., Ltd., priority 2017, dated 2023).

Experiments:
[1] = tested on: mouse cervical cancer cell line U14; experiment: Mice U14 subcutaneous model, complex combined with chemotherapy; type: in vivo, C57 female mice; details: U14 sc
Procedure: C57 female mice aged 6-8 weeks were raised. The mouse cervical cancer cell line U14 cultured to the logarithmic growth phase was prepared into a cell suspension and the cell density was 2×10^7/ml. Experimental animals were subcutaneously injected on the right back, with an injection system of 100 μl per mouse. When the tumor could be palpated (tumor volume is about 4 mm×4 mm×3 mm, i.e. the 5th day after inoculation), the mice were randomly divided into 6 groups, and administrated every 3 days for a total of 8 times according to the grouping and treatment scheme in Table 16. The tumor volume was measured every three days. After administration for 8 times, the mice were killed and subcutaneous tumors were dissected for examination.
Wherein, the administration volume is 100 μl per mouse, DDP is intraperitoneally administrated once a week. DDP is Cisplatin and LP is pMVA-1/DOTAP complex.

A549 cells [2] = experiment: ROS level by H2DCF-DA fluorescence probe, flow cytometry; type: cell-based
Procedure: (1) Sample loading: […] (3) […] CM-H2DCFDA fluorescent probe (made by Sigma) was added to the resuspended cells prepared in Step (2), incubated at 37° C. for 0.5 h, washed with PBS and resuspended; (4) The resuspended cells in Step (3) were tested with flow cytometry (Novocyte), and the test results were analyzed by Novoexpress software.

A549 cells [3] = experiment: Death ratio of A549 cells pretreated with NAC, flow cytometry; type: cell-based; details: pretreated with NAC before pMVA-1/DOTAP complex

## N.N.[Cl][Pt][Cl] [Cisplatin]
[1]
  lymphocyte infiltration in tumor tissue: less common
[1]; Q3d x 8
  tumor volume vs NS group, DOTAP group and pMVA-1 group: significantly lower
[1]; Q3d x 8, Cisplatin ip once a week
  tumor growth: slow tumor growth

## OO [H2O2]
A549 cells [2]; A549, 3 h, H2O2 at 200 μM, *P<0.05
  intracellular ROS level: increased significantly

## CC(=O)N[C@@H](CS)C(=O)O [NAC, N-Acetyl-L-cysteine]
A549 cells [3]
  death ratio of A549 cells: significantly reduced
A549 cells [2]; A549 pretreated with 5 mM NAC before pMVA-1/DOTAP complex
  intracellular ROS level after NAC pretreatment: decreased significantly
